Measured values reported in the supplement of paper PMC10307832.

Assays:
Test in all cases: relative viability (nuclei count vs DMSO), 5 days (fraction); higher = more cells survive
[1] = compound: C1CC2=C(C1)C=C(C=C2)OC3=NC(=C4C(=N3)N(C=N4)CC5=CC=C(C=C5)C6=CC=CC=C6)N[C@@H](CC7=CC=CC=C7)CO [QS11] + CC(=O)Nc1cccc(-n2c(=O)n(C3CC3)c(=O)c3c(Nc4ccc(I)cc4F)n(C)c(=O)c(C)c32)c1 [Trametinib] (partner 0.02 µM)
How it was run: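 After 5 days of treatment, lung cancer cells in 1536-well plates were fixed and stained in a single step (final 0.05% Triton X-100, 1% formaldehyde, 1 ug/ml Hoechst) and their nuclei counted on 4× images. Treatment had been applied by pin tool the day after seeding as one drug alone or as a fixed anchor-drug dose with five library-drug doses (not always all listed) in √10 steps. Relative viability is the nuclei count of treated wells divided by that of vehicle wells, and values are medians of duplicate plates.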

[2] = compound: C[As](C)SC[C@H](NC(=O)CC[C@H](N)C(=O)O)C(=O)NCC(=O)O [Darinaparsin]
How it was run: (§1)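 Only plates meeting two conditions passed: control CV below 25% and at least one doubling. Lung cancer cell lines, kept overnight at 37 °C in 1536-well plates, were pinned with five library-drug doses (not always all listed) √10 apart on vehicle-anchored plates and grown 5 days without medium change. A one-step fix, permeabilisation and Hoechst stain preceded 4× imaging and MetaXpress nuclear counting. Viability equals treated-well nuclei divided by vehicle-well nuclei, as the median over plates.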

[3] = compound: CC1=C(C=C(C=C1)NC(=O)C2=CC(=CC=C2)C(C)(C)C#N)NC3=CC4=C(C=C3)N=CN(C4=O)C [AZ628]
How it was run: as §1

[4] = compound: C1CC2=C(C1)C=C(C=C2)OC3=NC(=C4C(=N3)N(C=N4)CC5=CC=C(C=C5)C6=CC=CC=C6)N[C@@H](CC7=CC=CC=C7)CO [QS11]
How it was run: as §1

Row | Cell Line | relative viability ([1]; first compound 0.253 µM) | relative viability ([1]; first compound 0.8 µM) | relative viability ([1]; first compound 2.53 µM) | relative viability ([1]; first compound 8 µM) | relative viability ([2]; 0.08 µM) | relative viability ([2]; 0.8 µM) | relative viability ([2]; 2.53 µM) | relative viability ([2]; 8 µM) | relative viability ([3]; 0.08 µM) | relative viability ([3]; 0.253 µM) | relative viability ([3]; 0.8 µM) | relative viability ([3]; 2.53 µM) | relative viability ([3]; 8 µM) | relative viability ([4]; 0.08 µM) | relative viability ([4]; 0.253 µM) | relative viability ([4]; 0.8 µM) | relative viability ([4]; 2.53 µM) | relative viability ([4]; 8 µM) | relative viability ([1]; first compound 0.08 µM)
1 | PC-14 | 0.66 | 0.698 | 0.717 | 0.634 | 1.05 | 0.97 | 1.02 | 1.22 | 1.07 | 0.938 | 0.907 | 0.959 | 0.674 | 0.821 | 1.06 | 0.888 | 1.04 | 0.895 | 
2 | EPLC-272H | 0.32 | 0.3 | 0.28 | 0.3 | 0.8 | 0.841 | 0.902 | 0.992 | 0.955 | 0.848 | 0.971 | 0.953 | 0.628 | 0.698 | 1.02 | 0.949 | 0.995 | 0.908 | 
3 | NCI-H2228 | 0.392 | 0.507 | 0.788 | 0.547 | 1.39 | 1.18 | 0.915 | 1.35 | 0.994 | 1.16 | 0.968 | 1.02 | 0.84 | 0.902 | 1.01 | 0.97 | 1.09 | 1.32 | 0.483
4 | LC-2-ad | 0.985 | 0.606 | 0.843 | 0.962 | 1.06 | 0.996 | 1.01 | 1.2 | 1.07 | 0.911 | 0.88 | 0.928 | 0.768 | 1.01 | 1.05 | 0.808 | 0.972 | 0.955 | 0.906
5 | HOP-62 | 0.393 | 0.38 | 0.357 | 0.42 | 1.07 | 1.08 | 0.95 | 1.08 | 1.07 | 1.07 | 0.937 | 1.09 | 0.573 | 1.06 | 1.09 | 0.867 | 0.922 | 0.88 | 0.373
6 | UMC-11 | 0.548 | 0.618 | 0.775 | 0.898 | 0.997 | 0.949 | 0.926 | 1.03 | 1.07 | 0.974 | 0.992 | 0.943 | 1.08 | 0.952 | 0.979 | 0.992 | 1.17 | 1.22 | 0.603
7 | Calu-6 |  |  |  |  | 1.2 | 0.99 | 1.01 | 1.14 | 1.02 | 0.899 | 0.754 | 0.784 | 0.207 | 1.11 | 1.06 | 0.941 | 1.1 | 1.07 | 
8 | HCC-44 | 0.908 | 0.599 | 1.02 | 1.02 | 0.964 | 0.957 | 0.987 | 0.996 | 1.02 | 1.03 | 0.988 | 0.987 | 0.984 | 1.07 | 0.913 | 0.735 | 0.969 | 0.83 | 1.19
9 | NCI-H727 | 0.404 | 0.38 | 0.406 | 0.396 | 0.895 | 0.884 | 0.986 | 1.04 | 0.777 | 0.531 | 0.389 | 0.543 | 0.294 | 0.989 | 0.975 | 0.867 | 0.935 | 0.752 | 0.416
10 | A-427 | 0.78 |  | 0.805 | 0.767 | 1.1 | 0.96 | 1.03 | 1.13 | 0.999 | 0.891 | 0.884 | 0.919 | 0.436 | 0.862 | 1.05 |  | 1.05 | 1.04 | 0.778
11 | SK-MES-1 | 0.557 | 0.451 | 0.507 | 0.527 | 1.15 | 1.05 | 0.948 | 1.26 | 0.945 | 0.99 | 0.923 | 0.92 | 0.595 | 1.12 | 0.952 | 0.941 | 0.95 | 0.946 | 0.519
12 | NCI-H1623 |  |  |  |  | 0.925 | 1.06 | 0.975 | 1.02 | 0.992 | 0.979 | 0.604 | 0.858 | 0.615 | 0.912 | 1.03 | 0.862 | 0.871 | 1.04 | 
13 | HCC-827 | 0.559 | 0.595 | 0.698 | 0.557 | 1.09 | 1.02 | 1.07 | 1.16 | 1.03 | 1.01 | 1.03 | 1.07 | 0.839 | 1 | 1.13 | 0.813 | 1.02 | 0.931 | 0.507
14 | EKVX | 0.618 | 0.3 | 0.306 | 0.321 | 1.04 | 0.922 | 0.943 | 1.04 | 1.05 | 0.959 | 1 | 0.939 | 0.774 | 0.973 | 0.922 | 0.602 | 0.907 | 1.06 | 0.288
15 | SW 900 | 0.724 | 0.724 | 0.721 | 0.453 | 0.965 | 0.669 | 0.994 | 0.942 | 1.13 | 0.865 | 1.14 | 0.803 | 0.889 | 0.705 | 0.688 | 0.809 | 0.663 | 0.521 | 0.797
16 | NCI-H661 | 0.594 | 0.473 | 0.46 | 0.477 | 0.999 | 1.01 | 1.03 | 1.12 | 1.08 | 1.05 | 0.861 | 0.938 | 0.842 | 0.992 | 0.977 | 0.853 | 1.01 | 1.03 | 0.624
17 | NCI-H1975 | 0.246 | 0.328 | 0.424 | 0.327 | 0.992 | 1.01 | 0.906 | 1.05 | 0.927 | 0.85 | 0.889 | 0.94 | 0.768 | 0.954 | 0.881 | 1.04 | 1.23 | 1.34 | 0.329
